Source: US20240238299A1, “USE OF PYRROLOPYRIMIDINE COMPOUND” (GUANGZHOU JOYO PHARMATECH CO., LTD, priority 2021, published 2024)

Tested on: MOG35-55-induced experimental autoimmune encephalomyelitis (EAE) mouse model
Experiment: MOG35-55-induced EAE mouse model, clinical scoring and incidence
Type: in vivo, C57BL/6 mice

CN(c1ncnc2[nH]ccc12)[C@@H]1CCc2cc(C#N)nn2C1 [Compound I]
0.60: EAE clinical scoring, Mean (G7, 20 mg/kg BID oral, day 14) | EAE clinical scoring, Mean (G8, 20 mg/kg QD oral, day 14)
0.70: EAE clinical scoring, Mean (G8, 20 mg/kg QD oral, day 21)
80%: incidence of EAE (G7, 20 mg/kg BID oral, day 18) | incidence of EAE (G7, 20 mg/kg BID oral, day 19) | incidence of EAE (G8, 20 mg/kg QD oral, day 17)
1.40: EAE clinical scoring, Mean (G8, 20 mg/kg QD oral, day 17)
0%: incidence of EAE (G7, 20 mg/kg BID oral, day 0) | incidence of EAE (G7, 20 mg/kg BID oral, day 2) | incidence of EAE (G7, 20 mg/kg BID oral, day 4) | incidence of EAE (G7, 20 mg/kg BID oral, day 7) | incidence of EAE (G7, 20 mg/kg BID oral, day 9) | incidence of EAE (G7, 20 mg/kg BID oral, day 11) | incidence of EAE (G7, 20 mg/kg BID oral, day 12) | incidence of EAE (G8, 20 mg/kg QD oral, day 0) | incidence of EAE (G8, 20 mg/kg QD oral, day 2) | incidence of EAE (G8, 20 mg/kg QD oral, day 4) | incidence of EAE (G8, 20 mg/kg QD oral, day 7) | incidence of EAE (G8, 20 mg/kg QD oral, day 9) | incidence of EAE (G8, 20 mg/kg QD oral, day 11) | incidence of EAE (G8, 20 mg/kg QD oral, day 12)
1.30: EAE clinical scoring, Mean (G8, 20 mg/kg QD oral, day 16) | EAE clinical scoring, Mean (G8, 20 mg/kg QD oral, day 18)
1.00: EAE clinical scoring, Mean (G7, 20 mg/kg BID oral, day 17)
0.20: EAE clinical scoring, Mean (G8, 20 mg/kg QD oral, day 13)
1.10: EAE clinical scoring, Mean (G7, 20 mg/kg BID oral, day 18) | EAE clinical scoring, Mean (G7, 20 mg/kg BID oral, day 19) | EAE clinical scoring, Mean (G8, 20 mg/kg QD oral, day 15) | EAE clinical scoring, Mean (G8, 20 mg/kg QD oral, day 19)
10%: incidence of EAE (G7, 20 mg/kg BID oral, day 24) | incidence of EAE (G7, 20 mg/kg BID oral, day 25) | incidence of EAE (G7, 20 mg/kg BID oral, day 26) | incidence of EAE (G7, 20 mg/kg BID oral, day 27)
0.40: EAE clinical scoring, Mean (G8, 20 mg/kg QD oral, day 22) | EAE clinical scoring, Mean (G8, 20 mg/kg QD oral, day 23)
60%: incidence of EAE (G7, 20 mg/kg BID oral, day 15) | incidence of EAE (G7, 20 mg/kg BID oral, day 16) | incidence of EAE (G7, 20 mg/kg BID oral, day 21)
40%: incidence of EAE (G8, 20 mg/kg QD oral, day 22) | incidence of EAE (G8, 20 mg/kg QD oral, day 23)
0.00: EAE clinical scoring, Mean (G7, 20 mg/kg BID oral, day 0) | EAE clinical scoring, Mean (G7, 20 mg/kg BID oral, day 2) | EAE clinical scoring, Mean (G7, 20 mg/kg BID oral, day 4) | EAE clinical scoring, Mean (G7, 20 mg/kg BID oral, day 7) | EAE clinical scoring, Mean (G7, 20 mg/kg BID oral, day 9) | EAE clinical scoring, Mean (G7, 20 mg/kg BID oral, day 11) | EAE clinical scoring, Mean (G7, 20 mg/kg BID oral, day 12) | EAE clinical scoring, Mean (G8, 20 mg/kg QD oral, day 0) | EAE clinical scoring, Mean (G8, 20 mg/kg QD oral, day 2) | EAE clinical scoring, Mean (G8, 20 mg/kg QD oral, day 4) | EAE clinical scoring, Mean (G8, 20 mg/kg QD oral, day 7) | EAE clinical scoring, Mean (G8, 20 mg/kg QD oral, day 9) | EAE clinical scoring, Mean (G8, 20 mg/kg QD oral, day 11) | EAE clinical scoring, Mean (G8, 20 mg/kg QD oral, day 12)
0.90: EAE clinical scoring, Mean (G7, 20 mg/kg BID oral, day 16) | EAE clinical scoring, Mean (G7, 20 mg/kg BID oral, day 20)
0.30: EAE clinical scoring, Mean (G6, 10 mg/kg BID oral, day 27) | EAE clinical scoring, Mean (G7, 20 mg/kg BID oral, day 13) | EAE clinical scoring, Mean (G7, 20 mg/kg BID oral, day 24) | EAE clinical scoring, Mean (G7, 20 mg/kg BID oral, day 25) | EAE clinical scoring, Mean (G7, 20 mg/kg BID oral, day 26) | EAE clinical scoring, Mean (G7, 20 mg/kg BID oral, day 27) | EAE clinical scoring, Mean (G8, 20 mg/kg QD oral, day 24) | EAE clinical scoring, Mean (G8, 20 mg/kg QD oral, day 25) | EAE clinical scoring, Mean (G8, 20 mg/kg QD oral, day 26) | EAE clinical scoring, Mean (G8, 20 mg/kg QD oral, day 27)
20%: incidence of EAE (G8, 20 mg/kg QD oral, day 13)
0.80: EAE clinical scoring, Mean (G7, 20 mg/kg BID oral, day 15) | EAE clinical scoring, Mean (G7, 20 mg/kg BID oral, day 21) | EAE clinical scoring, Mean (G8, 20 mg/kg QD oral, day 20)
3 mg/kg: effective dose starting at (twice daily (BID), oral, EAE clinical symptoms)
50%: incidence of EAE (G7, 20 mg/kg BID oral, day 14) | incidence of EAE (G8, 20 mg/kg QD oral, day 14) | incidence of EAE (G8, 20 mg/kg QD oral, day 20) | incidence of EAE (G8, 20 mg/kg QD oral, day 21)
0.50: EAE clinical scoring, Mean (G7, 20 mg/kg BID oral, day 22) | EAE clinical scoring, Mean (G7, 20 mg/kg BID oral, day 23)
30%: incidence of EAE (G6, 10 mg/kg BID oral, day 27) | incidence of EAE (G7, 20 mg/kg BID oral, day 13) | incidence of EAE (G7, 20 mg/kg BID oral, day 22) | incidence of EAE (G7, 20 mg/kg BID oral, day 23) | incidence of EAE (G8, 20 mg/kg QD oral, day 24) | incidence of EAE (G8, 20 mg/kg QD oral, day 25) | incidence of EAE (G8, 20 mg/kg QD oral, day 26) | incidence of EAE (G8, 20 mg/kg QD oral, day 27)
70%: incidence of EAE (G7, 20 mg/kg BID oral, day 17) | incidence of EAE (G7, 20 mg/kg BID oral, day 20) | incidence of EAE (G8, 20 mg/kg QD oral, day 15) | incidence of EAE (G8, 20 mg/kg QD oral, day 16) | incidence of EAE (G8, 20 mg/kg QD oral, day 18) | incidence of EAE (G8, 20 mg/kg QD oral, day 19)
